From patent US8946286B2, “Organic amine salts of aminobenzoic acid derivatives and method for producing same” (Nissan Chemical Industries, Ltd., priority 2010, dated 2015) come the findings set out here.

Structures are written as SMILES.

The nature of one data set: Hygrostability test. The format is physicochemical. The settings on record: 25° C./90% RH for 2 weeks, vessel left open. As to the method: (§1) In the following Assay Examples 2 to 4, the stability of the ethanolamine salt (1), tromethamine salt (2), choline salt (3) and potassium salt (4) of 3-{[((2E)-2-{1-[5-(4-t-butylphenyl)-4-hydroxy-3-thienyl]ethylidene}hydrazino)carbonothioyl]amino}benzoic acid to temperature, humidity and light was evaluated, by related substance increase (%), weight change (%) or TG loss change (%) through appropriate selection.
(§2) Related substance increase (%)
(§3) Each sample was analyzed by high performance liquid chromatography before and after treatment, and the sum of area percentages for analogues in each sample were calculated. • Column: L-column ODS (Chemicals Evaluation and Research Institute, Japan inner diameter 4.6 mm, length 250 mm) • Detector: UV absorptiometer (wavelength; […]) • Column temperature: 40° C. • Flow rate: 1.0 mL/min • Injection volume: 10 μL • Mobile phase: (a) 0.01 M ammonium formate buffer (pH 3.0) • (b) acetonitrile Measurements were carried out with a gradient between the above (a) and (b) solutions.
(§4) Each sample was weighed before and after treatment, and weight gain was calculated in percentages from the difference in weight. The magnitude of weight change during treatment is an indication of stability of a compound. TG loss change (%);
(§5) About 5 mg of each sample was weighed out before and after treatment and put in an aluminum pan, and TG measurements were performed with the pan left open. The rate of TG loss of each sample was calculated in percentages (%). The measuring conditions are shown below.
(§6) Measuring Conditions; • Instrument:TG8120 (Rigaku Corporation) • Measuring range: room temperature to 105° C. • Heating rate: 5° C./min • Atmosphere: air 50 mL/min
(§7) An increase in TG loss from the initial value indicates possibility of moisture absorption and degradation of a compound. Therefore, the magnitude of change in TG loss is an indication of stability of a compound.
The hygrostability of the ethanolamine salt (1), tromethamine salt (2), choline salt (3) and potassium salt (4) of 3-{[((2E)-2-{1-[5-(4-t-butylphenyl)-4-hydroxy-3-thienyl]ethylidene}hydrazino)carbonothioyl]amino}benzoic acid was evaluated as follows.
About 1 g of each sample was put in a transparent glass vessel and maintained at 25° C./90% RH (relative humidity) for 2 weeks with the vessel left open. After 2 weeks, the sample was withdrawn, and the related substance increase (%), weight change (%) and TG loss change (%) were evaluated.

A further data set can be described thus: Photostability test. The format is physicochemical. The settings on record: 25° C./60% RH, vessel left open, light of 200 W·hr·m^2 for 57 hours. As for the experimental part:
as §1, §2, §3, §4, §5, §6, §7
The photostability of the ethanolamine salt (1), tromethamine salt (2), choline salt (3) and potassium salt (4) of 3-{[((2E)-2-{1-[5-(4-t-butylphenyl)-4-hydroxy-3-thienyl]ethylidene}hydrazino)carbonothioyl]amino}benzoic acid was evaluated as follows.
About 1 g of each sample was put in a transparent glass vessel at 25° C./60% RH (relative humidity) with the vessel left open and irradiated with light of 200 W·hr·m^2 for 57 hours. […], the sample was withdrawn, and the related substance increase (%), weight change (%) and TG loss change (%) were evaluated.

A further data set in a line: Thermal stability test. As to conditions: 60° C. for 2 weeks without humidity control, brown glass vessel. The format is physicochemical. As to the method:
as §1, §2, §3
The thermal stability of the ethanolamine salt (1), tromethamine salt (2), choline salt (3) and potassium salt (4) of 3-{[((2E)-2-{1-[5-(4-t-butylphenyl)-4-hydroxy-3-thienyl]ethylidene}hydrazino)carbonothioyl]amino}benzoic acid was evaluated as follows.
Each sample was put in a brown glass vessel, and the vessel was left at 60° C. for 2 weeks without humidity control. After 2 weeks, the sample was withdrawn, and the related substance increase (%) was evaluated.

Data set [1] can be described thus: Initial values of TG loss and related substances before treatment. The format is physicochemical. As to conditions: initial value before treatment; for Related substances (%): HPLC, sum of area percentages for analogues; for TG loss (%): TG room temperature to 105° C. As to the method:
as §2, §3, §5, §6

Data set [2] is described as follows: Oral absorption test on dogs. The settings on record: beagle dogs, oral capsule, 360 mg/dog; ratio to Compound A (free form). The format is in vivo. As to the method:
Oral Absorption Test on Dogs
The free form (Compound A), potassium salt, organic amine salts (ethanolamine salt and tromethamine salt) and salt of quaternary ammonium ion (choline salt) of 3-{[((2E)-2-{1-[5-(4-t-butylphenyl)-4-hydroxy-3-thienyl]ethylidene}hydrazino)carbonothioyl]amino}benzoic acid in capsule were orally administered to beagle dogs at a dose of 360 mg/dog. 0.5, 1, 2, 4, 6, 8 and 24 hours after the administration, blood was collected to obtain plasma samples. Their concentrations in dog plasma were measured by LC/MS/MS. Using the plasma concentrations obtained, maximum plasma concentration (Cmax), time to maximum plasma concentration (Tmax) and area under the plasma concentration-time curve were calculated.
In FIG. 1, * represents Compound A (Free Acid), ♦ represents the potassium salt (Potassium Salt), □ represents the choline salt (Choline Salt), ▴ represents ethanolamine (Ethanolamine Salt), and ◯ represents the tromethamine salt (Tromethamine Salt).

On to `C/C(=N\NC(=S)Nc1cccc(C(=O)O)c1)c1csc(-c2ccc(C(C)(C)C)cc2)c1O.NCCO` [(1), Ethanolamine salt of 3-{[((2E)-2-{1-[5-(4-t-butylphenyl)-4-hydroxy-3-thienyl]ethylidene}hydrazino)carbonothioyl]amino}benzoic acid], for which, in “Hygrostability test”, the Related substance increase is 0.04%, the TG loss change is −0.26% and the Weight change turned out to be 0.29%. Also, in the data set “Photostability test”, the Related substance increase is on record as −0.01%, the TG loss change was −0.25% and the Weight change was determined as 0.23%. In addition, the Related substance increase in the data set “Thermal stability test” is reported as 0.16%. Further, in data set [1], the “Related substances (%)” value is 0.34% and the “TG loss (%)” value amounted to 0.64%.

For the compound `C/C(=N\NC(=S)Nc1cccc(C(=O)O)c1)c1csc(-c2ccc(C(C)(C)C)cc2)c1O.NC(CO)(CO)CO` [(2), Tromethamine salt of 3-{[((2E)-2-{1-[5-(4-t-butylphenyl)-4-hydroxy-3-thienyl]ethylidene}hydrazino)carbonothioyl]amino}benzoic acid], in the data set “Hygrostability test”, the Related substance increase is listed as −0.03%, the TG loss change is reported as −0.13% and the Weight change came to 0.00%. For the same compound, in the data set “Photostability test”, the Related substance increase was found to be 0.01%, the TG loss change is −0.13% and the Weight change was found to be 0.01%. For the same compound, the Related substance increase in the data set “Thermal stability test” was −0.01%. For the same compound, in data set [1], the “Related substances (%)” value is on record as 0.07% and the “TG loss (%)” value came out at 0.11%.

Regarding `C/C(=N\NC(=S)Nc1cccc(C(=O)[O-])c1)c1csc(-c2ccc(C(C)(C)C)cc2)c1O.[K+]` [(4), Potassium 3-{[((2E)-2-{1-[5-(4-t-butylphenyl)-4-hydroxy-3-thienyl]ethylidene}hydrazine)carbonothioyl]amino}benzoate, reference compound], in the data set “Hygrostability test”, the Related substance increase was 0.39%, the TG loss change turned out to be 7.86% and the Weight change stood at 23.22%. Also, in “Photostability test”, the Related substance increase came out at 0.27%, the TG loss change is reported as 3.16% and the Weight change is 9.36%. In addition, the Related substance increase in the data set “Thermal stability test” came out at 2.46%. In data set [1], the “Related substances (%)” value was found to be 1.86% and the “TG loss (%)” value is on record as 3.18%. In addition, in data set [2], the “area under the plasma concentration-time curve (AUC), times better than Compound A” value worked out at 6.3 times and the “maximum plasma concentration (Cmax), times better than Compound A” value is 7.2 times.

On to `C/C(=N\NC(=S)Nc1cccc(C(=O)[O-])c1)c1csc(-c2ccc(C(C)(C)C)cc2)c1O.C[N+](C)(C)CCO` [(3), Choline salt of 3-{[((2E)-2-{1-[5-(4-t-butylphenyl)-4-hydroxy-3-thienyl]ethylidene}hydrazino)carbonothioyl]amino}benzoic acid], for which, in the data set “Hygrostability test”, the Related substance increase is listed as −0.01%, the TG loss change is on record as 0.66% and the Weight change is 0.10%. In the data set “Photostability test”, the Related substance increase is listed as 0.00%, the TG loss change worked out at 0.58% and the Weight change is on record as 0.17%. Further, the Related substance increase in “Thermal stability test” is −0.01%. Further, in data set [1], the “Related substances (%)” value came to 0.34% and the “TG loss (%)” value came out at 1.19%.
